# Test results taken from publication PMC12610721, “The Action of Cannabidiol on Doxycycline Cytotoxicity in Human Cells—In Vitro Study” (Molecules, 2025).
# Like-named read-outs stand apart in the source and are kept apart here.
# Legend:
# HepG2 cells [1] = assay: oxidative stress, ROS production (DCFH assay); type: cell-based, human; conditions: HepG2, DCFH-DA, 72 h
# Procedure: (§1) Intracellular ROS levels were evaluated using the redox-sensitive fluorescent dye DCFH-DA [87]. Briefly, the cells were incubated with 5 μM DCFH-DA for 1 h at 37 °C in the dark. Thereafter, the tested compounds were added at the concentrations used in the study. Cells treated with 500 μM hydrogen peroxide (H2O2) served as a positive control. After 72 h of incubation, the fluorescence of 2′,7′-dichlorofluorescein (DCF) was measured. Fluorescence was recorded at 485/530 nm using a fluorescence microplate reader (BioTek® Instruments Inc., Winooski, VT, USA).
# HEK-293 cells [2] = assay: oxidative stress, ROS production (DCFH assay); type: cell-based, human
# Procedure: as §1
# SH-SY5Y cells = assay: oxidative stress, ROS production (DCFH assay); type: cell-based, human; conditions: DCFH-DA, 72 h
# Procedure: as §1
# HEK-293 cells [3] = system: HEK-293 cells; parameters: method as in earlier work; conditions: cited from earlier work; for IC50: HEK-293, 48 h of exposure
# HepG2 cells [4] = system: HepG2 cells; parameters: method as in PMID 32867402; conditions: cited from earlier work
# renal cancer cells = system: renal cancer cells; parameters: method as in PMID 34644207; conditions: cited from earlier work
compound,measurement,setting,value
"C[C@H]1c2cccc(O)c2C(=O)C2=C(O)[C@]3(O)C(=O)C(C(N)=O)=C(O)[C@@H](N(C)C)[C@@H]3[C@@H](O)[C@@H]21 [DOX, doxycycline hyclate]",doxycycline concentration at which free radical (ROS) production increased significantly,HepG2 cells [1],12.5 µg/mL
same,doxycycline concentration from which free radical (ROS) production increased,HEK-293 cells [2],lowest tested concentration
same,doxycycline concentration from which free radical (ROS) production increased,SH-SY5Y cells,1.56 µg/mL
same,effect on cell viability,"HEK-293 cells [3]; HEK-293, 20 µg/mL",reduces the viability
same,induction of apoptosis,"HEK-293 cells [3]; HEK-293, 20 µg/mL",does not induce apoptosis
same,IC50,HEK-293 cells [3]; converted value in brackets,6.05 µg/mL
same,IC50,HEK-293 cells [3]; read-out: IC50,11.8 µM
same,concentration causing about a 50% reduction in cell viability,"HepG2 cells [4]; HepG2, converted value in brackets",10.3 to 13.0 µg/mL
same,IC50,"HepG2 cells [4]; HepG2, read-out: concentration causing about a 50% reduction in cell viability",20 to 25 µM
same,concentration that significantly inhibited protein synthesis and mitochondrial complex activity,renal cancer cells; cells of neoplastic origin,5 µg/mL
same,concentration that induced apoptosis,renal cancer cells; renal cancer cells,10 µg/mL
